Positions of bridges follow the written chain, without caps; N, C: chain ends. Non-standard residues stand in square brackets, D forms with d. Residues, ends and D or L forms follow the SMILES beside them. Bip(4'-NHAc) = CC(=O)Nc1ccc(-c2ccc(C[C@H](N)C(=O)O)cc2)cc1; Ala(morpholin-4-yl) = N[C@@H](CN1CCOCC1)C(=O)O; Phe(4-CH2NH2) = NCc1ccc(C[C@H](N)C(=O)O)cc1; Bip = N[C@@H](Cc1ccc(-c2ccccc2)cc1)C(=O)O; Pro(cis-4-F) = O=C(O)[C@@H]1C[C@H](F)CN1; Phe(4-F) = N[C@@H](Cc1ccc(F)cc1)C(=O)O; Phe(2-F) = N[C@@H](Cc1ccccc1F)C(=O)O; Val(3-OH) = CC(C)(O)[C@H](N)C(=O)O; Hyp = O=C(O)[C@@H]1C[C@@H](O)CN1; Tic = O=C(O)[C@@H]1Cc2ccccc2CN1; Pip = O=C(O)[C@@H]1CCCCN1; Aze = O=C(O)[C@@H]1CCN1; Sar = CNCC(=O)O

Sequence of TNFα (P01375 77-233 limits assumed): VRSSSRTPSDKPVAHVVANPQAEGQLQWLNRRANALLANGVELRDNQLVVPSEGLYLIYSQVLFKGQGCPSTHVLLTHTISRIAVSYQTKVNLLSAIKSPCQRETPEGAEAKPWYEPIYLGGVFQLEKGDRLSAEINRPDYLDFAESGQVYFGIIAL

This test addresses TNFα (Homo sapiens, UniProt P01375). Briefly: TNF-Induced HEK-Blue Assay. The class given is cell-based. The conditions noted are these: HEK-Blue-CD40L cells, NF-kB-driven secreted alkaline phosphatase reporter; TNFα 0.5 ng/ml; 18 h; read-out: TNF induced HEK-Blue assay IC50 value.
As for `CC(=O)Nc1ccc(-c2ccc(C[C@@H]3NC(=O)[C@H](Cc4ccc(-c5ccccc5)cc4)NC(=O)[C@H](Cc4ccccc4)NC(=O)CSC[C@@H](C(=O)NCC(N)=O)NC(=O)[C@H](CC(C)C)NC(=O)[C@H](CCCNC(=N)N)NC(=O)[C@H](C(C)C)NC(=O)[C@@H]4CCCN4C(=O)[C@H](C(C)C)NC(=O)[C@H](CCCNC(=N)N)NC(=O)[C@H](CC(=O)O)NC(=O)[C@@H]4CCCN4C(=O)CN(C)C3=O)cc2)cc1` [Example 37] ({CH2CO}-F[Bip][Bip(4'-NHAc)][Sar]PDRVPVRLCG-NH2; thioether N-13), the IC50 lay within 200 to 2000 nM. `CC(=O)Nc1ccc(-c2ccc(C[C@@H]3NC(=O)[C@H](Cc4ccccc4)NC(=O)CSC[C@@H](C(=O)NCC(N)=O)NC(=O)[C@H](CC(C)C)NC(=O)[C@H](CCCNC(=N)N)NC(=O)[C@H](C(C)C)NC(=O)[C@@H]4CCCN4C(=O)[C@H](C(C)C)NC(=O)[C@H](CCCNC(=N)N)NC(=O)[C@H](CC(=O)O)NC(=O)[C@@H]4CCCN4C(=O)CN(C)C(=O)[C@H](Cc4ccc(-c5ccccc5)cc4)NC3=O)cc2)cc1` [Example 38] ({CH2CO}-F[Bip(4'-NHAc)][Bip][Sar]PDRVPVRLCG-NH2; thioether N-13): the IC50 lay within 200 to 2000 nM. For `CC(C)C[C@@H]1NC(=O)[C@H](CCCNC(=N)N)NC(=O)[C@H](C(C)C)NC(=O)[C@@H]2C[C@@H](O)CN2C(=O)[C@H](C(C)C)NC(=O)[C@H](CCCNC(=N)N)NC(=O)[C@H](CC(=O)O)NC(=O)[C@@H]2CCCN2C(=O)CN(C)C(=O)[C@H](Cc2ccc(-c3ccccc3)cc2)NC(=O)[C@H](Cc2ccc(-c3ccccc3)cc2)NC(=O)[C@H](Cc2ccccc2)NC(=O)CSC[C@@H](C(=O)NCC(N)=O)NC1=O` [Example 39] ({CH2CO}-F[Bip][Bip][Sar]PDRV[Hyp]VRLCG-NH2; thioether N-13) the value was 200 to 2000 nM; for `CC(C)C[C@@H]1NC(=O)[C@H](CCCNC(=N)N)NC(=O)[C@H](C(C)C)NC(=O)[C@@H]2Cc3ccccc3CN2C(=O)[C@H](C(C)C)NC(=O)[C@H](CCCNC(=N)N)NC(=O)[C@H](CC(=O)O)NC(=O)[C@@H]2CCCN2C(=O)CN(C)C(=O)[C@H](Cc2ccc(-c3ccccc3)cc2)NC(=O)[C@H](Cc2ccc(-c3ccccc3)cc2)NC(=O)[C@H](Cc2ccccc2)NC(=O)CSC[C@@H](C(=O)NCC(N)=O)NC1=O` [Example 40] ({CH2CO}-F[Bip][Bip][Sar]PDRV[Tic]VRLCG-NH2; thioether N-13), 50 to 200 nM; for `CC(C)C[C@@H]1NC(=O)[C@H](CCCNC(=N)N)NC(=O)[C@H](C(C)C)NC(=O)[C@@H]2CCCCN2C(=O)[C@H](C(C)C)NC(=O)[C@H](CCCNC(=N)N)NC(=O)[C@H](CC(=O)O)NC(=O)[C@@H]2CCCN2C(=O)CN(C)C(=O)[C@H](Cc2ccc(-c3ccccc3)cc2)NC(=O)[C@H](Cc2ccc(-c3ccccc3)cc2)NC(=O)[C@H](Cc2ccccc2)NC(=O)CSC[C@@H](C(=O)NCC(N)=O)NC1=O` [Example 41] ({CH2CO}-F[Bip][Bip][Sar]PDRV[Pip]VRLCG-NH2; thioether N-13), 200 to 2000 nM.

Regarding `CC(C)C[C@@H]1NC(=O)[C@H](CCCNC(=N)N)NC(=O)[C@H](C(C)C)NC(=O)[C@@H]2CCN2C(=O)[C@H](C(C)C)NC(=O)[C@H](CCCNC(=N)N)NC(=O)[C@H](CC(=O)O)NC(=O)[C@@H]2CCCN2C(=O)CN(C)C(=O)[C@H](Cc2ccc(-c3ccccc3)cc2)NC(=O)[C@H](Cc2ccc(-c3ccccc3)cc2)NC(=O)[C@H](Cc2ccccc2)NC(=O)CSC[C@@H](C(=O)NCC(N)=O)NC1=O` [Example 42] ({CH2CO}-F[Bip][Bip][Sar]PDRV[Aze]VRLCG-NH2; thioether N-13), the half-inhibitory concentration (IC50) was in the range of 200 to 2000 nM. For the compound `CC(C)C[C@@H]1NC(=O)[C@H](CCCNC(=N)N)NC(=O)[C@H](C(C)C)NC(=O)[C@@H]2C[C@H](F)CN2C(=O)[C@H](C(C)C)NC(=O)[C@H](CCCNC(=N)N)NC(=O)[C@H](CC(=O)O)NC(=O)[C@@H]2CCCN2C(=O)CN(C)C(=O)[C@H](Cc2ccc(-c3ccccc3)cc2)NC(=O)[C@H](Cc2ccc(-c3ccccc3)cc2)NC(=O)[C@H](Cc2ccccc2)NC(=O)CSC[C@@H](C(=O)NCC(N)=O)NC1=O` [Example 43] ({CH2CO}-F[Bip][Bip][Sar]PDRV[Pro(cis-4-F)]VRLCG-NH2; thioether N-13), the half-maximal inhibitory concentration (IC50) was in the range of 200 to 2000 nM.

Turning to `CC(C)C[C@@H]1NC(=O)[C@H](CCCNC(=N)N)NC(=O)[C@H](C(C)C)NC(=O)[C@@H]2CCCN2C(=O)[C@H](C(C)C)NC(=O)[C@H](CCCNC(=N)N)NC(=O)[C@H](CC(=O)O)NC(=O)[C@@H]2C[C@@H](O)CN2C(=O)CN(C)C(=O)[C@H](Cc2ccc(-c3ccccc3)cc2)NC(=O)[C@H](Cc2ccc(-c3ccccc3)cc2)NC(=O)[C@H](Cc2ccccc2)NC(=O)CSC[C@@H](C(=O)NCC(N)=O)NC1=O` [Example 44] ({CH2CO}-F[Bip][Bip][Sar][Hyp]DRVPVRLCG-NH2; thioether N-13), the 50% inhibitory concentration (IC50) lay within 200 to 2000 nM. As to `CC(C)C[C@@H]1NC(=O)[C@H](CCCNC(=N)N)NC(=O)[C@H](C(C)C)NC(=O)[C@@H]2CCCN2C(=O)[C@H](C(C)C)NC(=O)[C@H](CCCNC(=N)N)NC(=O)[C@H](CC(=O)O)NC(=O)[C@@H]2Cc3ccccc3CN2C(=O)CN(C)C(=O)[C@H](Cc2ccc(-c3ccccc3)cc2)NC(=O)[C@H](Cc2ccc(-c3ccccc3)cc2)NC(=O)[C@H](Cc2ccccc2)NC(=O)CSC[C@@H](C(=O)NCC(N)=O)NC1=O` [Example 45] ({CH2CO}-F[Bip][Bip][Sar][Tic]DRVPVRLCG-NH2; thioether N-13), the IC50 was in the range of 200 to 2000 nM. For `CC(C)C[C@@H]1NC(=O)[C@H](CCCNC(=N)N)NC(=O)[C@H](C(C)C)NC(=O)[C@@H]2CCCN2C(=O)[C@H](C(C)C)NC(=O)[C@H](CCCNC(=N)N)NC(=O)[C@H](CC(=O)O)NC(=O)[C@@H]2CCN2C(=O)CN(C)C(=O)[C@H](Cc2ccc(-c3ccccc3)cc2)NC(=O)[C@H](Cc2ccc(-c3ccccc3)cc2)NC(=O)[C@H](Cc2ccccc2)NC(=O)CSC[C@@H](C(=O)NCC(N)=O)NC1=O` [Example 46] ({CH2CO}-F[Bip][Bip][Sar][Aze]DRVPVRLCG-NH2; thioether N-13) the value was 200 to 2000 nM; for `CC(C)C[C@@H]1NC(=O)[C@H](CCCNC(=N)N)NC(=O)[C@H](C(C)C)NC(=O)[C@@H]2CCCN2C(=O)[C@H](C(C)C)NC(=O)[C@H](CCCNC(=N)N)NC(=O)[C@H](CC(=O)O)NC(=O)[C@H](Cc2ccc(O)cc2)NC(=O)CN(C)C(=O)[C@H](Cc2ccc(-c3ccccc3)cc2)NC(=O)[C@H](Cc2ccc(-c3ccccc3)cc2)NC(=O)[C@H](CN2CCOCC2)NC(=O)CSC[C@@H](C(=O)NCC(N)=O)NC1=O` [Example 47] ({CH2CO}-[Ala(morpholin-4-yl)][Bip][Bip][Sar]YDRVPVRLCG-NH2; thioether N-13), 50 to 200 nM.

In the case of `CC(C)C[C@@H]1NC(=O)[C@H](Cc2ccc(O)cc2)NC(=O)[C@H](C(C)C)NC(=O)[C@@H]2CCCN2C(=O)[C@H](C(C)C)NC(=O)[C@H](CCCNC(=N)N)NC(=O)[C@H](CC(=O)O)NC(=O)[C@H](Cc2ccc(O)cc2)NC(=O)CN(C)C(=O)[C@H](Cc2ccc(-c3ccccc3)cc2)NC(=O)[C@H](Cc2ccc(-c3ccccc3)cc2)NC(=O)[C@H](CN2CCOCC2)NC(=O)CSC[C@@H](C(=O)NCC(N)=O)NC1=O` [Example 48] ({CH2CO}-[Ala(morpholin-4-yl)][Bip][Bip][Sar]YDRVPVYLCG-NH2; thioether N-13), the IC50 was in the range of 200 to 2000 nM. For `CC(C)C[C@@H]1NC(=O)[C@H](Cc2ccc(O)cc2)NC(=O)[C@H](C(C)C)NC(=O)[C@@H]2CCCN2C(=O)[C@H](C(C)C)NC(=O)[C@H](CCCNC(=N)N)NC(=O)[C@H](CC(=O)O)NC(=O)[C@@H]2CCCN2C(=O)CN(C)C(=O)[C@H](Cc2ccc(-c3ccccc3)cc2)NC(=O)[C@H](Cc2ccc(-c3ccccc3)cc2)NC(=O)[C@H](CN2CCOCC2)NC(=O)CSC[C@@H](C(=O)NCC(N)=O)NC1=O` [Example 49] ({CH2CO}-[Ala(morpholin-4-yl)][Bip][Bip][Sar]PDRVPVYLCG-NH2; thioether N-13) the value was 50 to 200 nM; for `CC(C)C[C@@H]1NC(=O)[C@H](Cc2ccc(O)cc2)NC(=O)[C@H](C(C)C)NC(=O)[C@@H]2CCCN2C(=O)[C@H](C(C)C)NC(=O)[C@H](CCCNC(=N)N)NC(=O)[C@H](CC(=O)O)NC(=O)[C@H](Cc2ccc(O)cc2)NC(=O)CN(C)C(=O)[C@H](Cc2ccc(-c3ccccc3)cc2)NC(=O)[C@H](Cc2ccc(-c3ccccc3)cc2)NC(=O)[C@H](C(C)(C)O)NC(=O)CSC[C@@H](C(=O)NCC(N)=O)NC1=O` [Example 50] ({CH2CO}-[Val(3-OH)][Bip][Bip][Sar]YDRVPVYLCG-NH2; thioether N-13), 50 to 200 nM.

On to `CC(C)C[C@@H]1NC(=O)[C@H](CCCNC(=N)N)NC(=O)[C@H](C(C)C)NC(=O)[C@@H]2CCCN2C(=O)[C@H](Cc2ccc(CN)cc2)NC(=O)[C@H](CCCNC(=N)N)NC(=O)[C@H](CC(=O)O)NC(=O)[C@@H]2CCCN2C(=O)CN(C)C(=O)[C@H](Cc2ccc(-c3ccccc3)cc2)NC(=O)[C@H](Cc2ccc(-c3ccccc3)cc2)NC(=O)[C@H](CN2CCOCC2)NC(=O)CSC[C@@H](C(=O)NCC(N)=O)NC1=O` [Example 51] ({CH2CO}-[Ala(morpholin-4-yl)][Bip][Bip][Sar]PDR[Phe(4-CH2NH2)]PVRLCG-NH2; thioether N-13), for which the IC50 was 200 to 2000 nM. Consider `CC(C)C[C@@H]1NC(=O)[C@H](CCCNC(=N)N)NC(=O)[C@H](C(C)C)NC(=O)[C@@H]2CCCN2C(=O)[C@H](Cc2ccc(F)cc2)NC(=O)[C@H](CCCNC(=N)N)NC(=O)[C@H](CC(=O)O)NC(=O)[C@@H]2CCCN2C(=O)CN(C)C(=O)[C@H](Cc2ccc(-c3ccccc3)cc2)NC(=O)[C@H](Cc2ccc(-c3ccccc3)cc2)NC(=O)[C@H](CN2CCOCC2)NC(=O)CSC[C@@H](C(=O)NCC(N)=O)NC1=O` [Example 52] ({CH2CO}-[Ala(morpholin-4-yl)][Bip][Bip][Sar]PDR[Phe(4-F)]PVRLCG-NH2; thioether N-13), for which the 50% inhibitory concentration (IC50) was in the range of 200 to 2000 nM. As for `CC(C)C[C@@H]1NC(=O)[C@H](CCCNC(=N)N)NC(=O)[C@H](C(C)C)NC(=O)[C@@H]2CCCN2C(=O)[C@H](Cc2ccccc2F)NC(=O)[C@H](CCCNC(=N)N)NC(=O)[C@H](CC(=O)O)NC(=O)[C@@H]2CCCN2C(=O)CN(C)C(=O)[C@H](Cc2ccc(-c3ccccc3)cc2)NC(=O)[C@H](Cc2ccc(-c3ccccc3)cc2)NC(=O)[C@H](CN2CCOCC2)NC(=O)CSC[C@@H](C(=O)NCC(N)=O)NC1=O` [Example 53] ({CH2CO}-[Ala(morpholin-4-yl)][Bip][Bip][Sar]PDR[Phe(2-F)]PVRLCG-NH2; thioether N-13), the 50% inhibitory concentration (IC50) is 200 to 2000 nM.
